In patent US20240366930A1, “WEARABLE BIOELECTRONICS FOR PROGRAMMABLE DELIVERY OF THERAPY” (The Regents of the University of California, priority 2023, published 2024):

Legend:
[1] = system: mouse wound model (6 mm punch biopsy wound held open by a silicone splint ring); assay: In vivo mouse wound model: re-epithelialization (H&E) after Flx+ delivery from wearable bioelectronic bandage
Text: (§1) FIG. 6 illustrates testing of the efficacy of the bioelectronic bandage in vivo on a mouse wound model. We created a 6 mm punch biopsy wound held open by a silicone splint ring to minimize wound contraction (FIG. 6A). Wound contraction is a major wound healing process in mice but not humans. It confounds the histological analysis of the wound reponse to therapy, particularly re-epithelialization [12b, 13]. A gas-permeable, transparent adhesive dressing, Tegaderm™, fixes the bioelectronic bandage to the mouse (FIG. 6A, right) so that the mouse can move around its cage without interference (FIG. 6B). This is possible because the lightweight bandage (2.5 g) represents less than 10% of the mouse weight. For this test, we programmed the bandage to deliver Flx^+ for three days for six hours per day (FIG. 6C).
(§2) We utilized a machine-learning algorithm reported to analyze images of wounds and evaluate their condition and healing progression (FIG. 6D). The algorithm automatically marked the wound area and analyzed the wound size (FIG. 6E). […] To further investigate healing, the wounds were fully excised at the end of the experiment, fixed, and stained with hematoxylin and eosin (H&E) to assess wound re-epithelialization (FIG. 6G-H). […] This variability allowed us to qualitatively correlate the dose of Flx^+ and wound healing as measured by the percentage of re-epithelization (FIG. 6J, right). […]

[2] = system: mouse wound model (6 mm punch biopsy wound); assay: Wound size analysis from wound images by machine-learning algorithm; type: in vivo; conditions: fluoxetine-treated wounds, similar trend to control
Text: as §1, §2

[3] = system: M1 and M2 macrophages in the wound; assay: Macrophage analysis of the wound (immunohistochemistry, M1 iNOS / M2 CD206 / F4/80); type: in vivo, mouse
Text: All cells (stained by DAPI, shown in blue), M1 (stained by iNOS, shown in green), M2 (stained by CD206, shown in red), and overall macrophages (stained by F4/80, shown in gray) were imaged and presented, FIG. 7b is an overlay of M1 and M2 staining, showing the distribution and ratio of macrophage subtypes, FIG. 7c is a box plot showing statistics of the M1/M2 ratio, which was 1.80+/−0.62 in the control group and 1.31+/−0.46 for the fluoxetine-treated group. […] The blue dot represents the M1/M2 ratio from the control group, and the red dot represents the fluoxetine-treated group. The dashed lines indicate the projected wound age, while the solid line represents the trend plotted from the data in the reference..
After analyzing the promising re-epithelization data, we delved deeper into another crucial indicator of wound healing: the M1/M2 macrophage ratio (FIG. 7). Macrophages play a pivotal role in the immune response and are crucially involved in the healing and regeneration of wounds. Although macrophages are phenotypically heterogeneous over a continuum, a simplified classification based on their polarized functions during the different stages of wound repair defines the M1 subtype that carries out pro-inflammatory activities and the M2 subtype that is anti-inflammatory and promotes tissue repair. […] Meanwhile, the number of M2-like macrophages increased in the center of the fluoxetine-treated wound, as depicted in FIG. 7A.

Q: With `CNCCC(Oc1ccc(C(F)(F)F)cc1)c1ccccc1` (stereo not shown) [fluoxetine] as the compound, how does the “increase in re-epithelialization compared to control” value ([1]; Flx+ delivered from the bioelectronic bandage, three days, six hours per day, H&E of excised wounds, P<0.05) read?
A: 39.9%

Q: And the “reepithelization in mouse 2 (>300 nMol per day Flx+) versus mouse 15 (10× smaller dose)” value ([1]; qualitative dose comparison, bioelectronic bandage)?
A: much faster

Q: And the “wound size trend over time” value [2]?
A: slight increase in size at day 1, followed by a decrease on subsequent days

Q: What about the “decrease in M1/M2 ratio compared to control” value ([3]; day 3, n=13 mice, P<0.05) of the same compound?
A: 27.2%

Q: What about the M1/M2 ratio ([3]; fluoxetine-treated group, day 3, n=13 mice) of the same compound?
A: 1.31+/−0.46

Q: And the “number of M2-like macrophages in the center of the wound” value ([3]; fluoxetine-treated wound, day 3)?
A: increased

Q: What about the “M1 macrophage infiltration of the center of the wound” value ([3]; three days after injury, control wound significantly infiltrated) of the same compound?
A: no change
